# Values quoted from earlier work in patent publication US20170112823A1, “COMPOSITIONS AND METHODS TO TREAT […] RELATED CONDITIONS” (priority 2015, published 2017).
# Settings: frequency of side effect
SMILES,side effect: dizziness,side effect: dry mouth,side effect: headache,side effect: nausea,"side effects: very commonly, dizziness and drowsiness"
"CNCC[C@H](Oc1cccc2ccccc12)c1cccs1 [Cymbalta, Duloxetine]",19%,23%,20%,34%,–
"CC(C)C[C@H](CN)CC(=O)O [LYRICA, Pregabalin]",–,–,–,–,> 10%
